Reference: patent US9029337B2, “Modulation of factor 7 expression” (Isis Pharmaceuticals, Inc., priority 2007, dated 2015)
Strand notation (5' to 3'): a small letter for the sugar, then the base; units joined by * are phosphorothioate-linked, units joined directly phosphodiester-linked; [ ] holds rarer units or linkages, { } end groups; capitals alone tell only the bases. e = 2'-O-(2-methoxyethyl) (MOE); [5mC] = 5-methylcytosine; d = 2'-deoxy (DNA)

test system: human Factor 7 mRNA; assay: Antisense inhibition of human Factor 7 mRNA in HepB3 cells, 50 nM antisense oligonucleotide, lipofectin; assay type: cell-based; conditions: Table 1, 50 nM, lipofectin, approximately 24 hours, relative to untreated control cells
Summary of the method: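 Readout is percent reduction of Factor 7 message compared with untreated cells, after correction for total RNA content quantified by RIBOGREEN®. Cultures were seeded at 4,000 cells per well and treated for about 24 hours before RNA extraction.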

In order of falling “% Inhibition” value:
1. 407903 (antisense e[5mC]*e[5mC]*eG*e[5mC]*eG*dG*dA*dG*dA*d[5mC]*d[5mC]*dA*d[5mC]*d[5mC]*d[5mC]*eA*eG*eA*eT*eG) [compound 407903]  98%
2. 407611 (antisense eT*e[5mC]*eT*e[5mC]*eA*d[5mC]*dA*dG*dT*dT*d[5mC]*d[5mC]*dG*dG*d[5mC]*e[5mC]*e[5mC]*eT*e[5mC]*eG) [compound 407611]  82%
3. 407627 (antisense eG*e[5mC]*e[5mC]*e[5mC]*eA*dG*d[5mC]*dA*d[5mC]*d[5mC]*dG*d[5mC]*dG*dA*dT*e[5mC]*eA*eG*eG*eT) [compound 407627]  79%
4. 407897 (antisense eG*e[5mC]*eT*eT*eG*dG*dT*dG*d[5mC]*d[5mC]*d[5mC]*dG*dT*dG*dT*eG*eG*eT*e[5mC]*eA) [compound 407897]  77%
5. 407911 (antisense e[5mC]*e[5mC]*e[5mC]*e[5mC]*eT*dT*dG*d[5mC]*dA*dG*dG*dA*dG*dT*d[5mC]*e[5mC]*eT*eT*eG*e[5mC]) [compound 407911]  74%
6. 407917 (antisense eA*e[5mC]*eA*e[5mC]*e[5mC]*d[5mC]*d[5mC]*dA*dA*dA*dG*dT*dG*dG*d[5mC]*e[5mC]*e[5mC]*eA*e[5mC]*eG) [compound 407917]  70%
7. 407937 (antisense eG*eA*eA*eG*eG*dG*dA*dG*dA*dA*dA*dT*dA*d[5mC]*dA*eT*eT*eT*eG*eG) [compound 407937]  59%
8. 407927 (antisense eA*eG*eG*eT*eA*dA*dG*dG*dA*dG*dG*d[5mC]*dT*d[5mC]*dA*eG*e[5mC]*eT*eG*eG) [compound 407927]  55%
9. 407932 (antisense eG*eA*eA*e[5mC]*e[5mC]*dA*dG*dA*dA*dA*dA*dG*dT*dG*dA*eG*eA*eG*e[5mC]*eT) [compound 407932]  55%
10. 407603 (antisense eT*eA*eA*eG*eA*dA*dA*dT*d[5mC]*d[5mC]*dA*dG*dA*dA*d[5mC]*eA*eG*e[5mC]*eT*eT) [compound 407603]  54%
11. 407601 (antisense e[5mC]*eA*eG*e[5mC]*e[5mC]*d[5mC]*dT*dG*dA*dA*dG*d[5mC]*d[5mC]*d[5mC]*dA*eA*eG*e[5mC]*eA*eG) [compound 407601]  52%
12. 407632 (antisense eT*e[5mC]*e[5mC]*eG*eT*dT*d[5mC]*dG*dG*dG*d[5mC]*dA*dG*dG*d[5mC]*eA*eG*eA*eG*eG) [compound 407632]  46%
13. 407656 (antisense e[5mC]*eA*eG*e[5mC]*eA*dA*dG*dA*dG*dT*dG*d[5mC]*dA*dG*d[5mC]*eT*eT*eG*e[5mC]*e[5mC]) [compound 407656]  43%
14. 407942 (antisense e[5mC]*eA*e[5mC]*eA*eG*dG*dT*dG*dT*dG*d[5mC]*dG*dG*dA*dG*eG*eA*eG*eA*e[5mC]) [compound 407942]  41%
15. 407597 (antisense eT*eG*eT*eT*eG*dA*d[5mC]*dA*dT*dT*d[5mC]*d[5mC]*d[5mC]*d[5mC]*dA*eT*eG*eG*eG*eA) [compound 407597]  39%
16. 407651 (antisense eA*eG*e[5mC]*e[5mC]*eT*d[5mC]*dA*dA*dA*d[5mC]*dA*dT*d[5mC]*dT*dA*eT*e[5mC]*eA*eA*eA) [compound 407651]  32%
17. 407653 (antisense eA*eA*eT*eA*eT*d[5mC]*dA*dT*dT*dG*dA*d[5mC]*dA*dA*dG*eG*eG*e[5mC]*eT*eG) [compound 407653]  21%
18. 407956 (antisense eA*eA*e[5mC]*eT*eT*dG*d[5mC]*dA*dT*dT*dT*dA*dG*dT*dG*eA*eT*eG*e[5mC]*eG) [compound 407956]  19%
19. 407951 (antisense eA*eA*e[5mC]*eA*eG*d[5mC]*dT*dT*dT*dT*dG*dT*dT*dT*dT*eT*eA*eA*eA*eA) [compound 407951]  0%

same assay, conditions: Table 6, 50 nM, lipofectin, approximately 24 hours

In order of rising “% Inhibition” value:
1. 422117 (antisense eG*eG*eA*eA*eG*dA*dA*dG*dG*dG*dA*d[5mC]*dG*dG*dA*eA*eG*eG*eT*eG) [compound 422117]  1%
2. 422127 (antisense eT*eA*e[5mC]*eT*eG*dA*dG*d[5mC]*dG*d[5mC]*dG*dG*dA*dA*dG*eA*eA*eG*eG*eG) [compound 422127]  17%
3. 422126 (antisense eA*e[5mC]*eT*eG*eA*dG*d[5mC]*dG*d[5mC]*dG*dG*dA*dA*dG*dA*eA*eG*eG*eG*eA) [compound 422126]  22%
4. 422191 (antisense eA*eG*e[5mC]*dG*d[5mC]*dG*dG*dA*dA*dG*dA*dA*dG*dG*dG*dA*d[5mC]*eG*eG*eA) [compound 422191]  27%

same assay, conditions: Table 13 (microwalk), 50 nM, lipofectin, approximately 24 hours

For “416482 (antisense e[5mC]*eA*eT*eG*eG*dT*dG*dA*dT*dG*d[5mC]*dT*dT*d[5mC]*dT*eG*eA*eA*eT*eT) [compound 416482]”, the “% Inhibition” value was 64%.

same assay, conditions: lipofectin, 50 nM antisense oligonucleotide, approximately 24 hours, Factor 7 mRNA by real-time RT-PCR (RTS 2927), relative to untreated control

In order of falling “% Inhibition” value:
1. 416482 (antisense e[5mC]*eA*eT*eG*eG*dT*dG*dA*dT*dG*d[5mC]*dT*dT*d[5mC]*dT*eG*eA*eA*eT*eT) [compound 416482]  64%
2. 416471 (antisense eT*eG*eA*eG*e[5mC]*dT*dT*dT*dT*dG*d[5mC]*dA*dG*d[5mC]*d[5mC]*eA*e[5mC]*eT*e[5mC]*eG) [compound 416471]  62%
3. 416467 (antisense e[5mC]*e[5mC]*e[5mC]*eT*eG*dG*d[5mC]*d[5mC]*d[5mC]*d[5mC]*dA*dG*d[5mC]*dT*dG*eA*e[5mC]*eG*eA*eT) [compound 416467]  55%
4. 416539 (antisense eG*eA*e[5mC]*eA*eG*dA*dG*d[5mC]*d[5mC]*dT*dG*dA*dG*d[5mC]*dT*eT*eG*eG*e[5mC]*eA) [compound 416539]  53%
5. 416460 (antisense e[5mC]*eA*e[5mC]*e[5mC]*eA*d[5mC]*dA*dT*dG*dG*dT*d[5mC]*dA*dG*dT*eG*eA*eG*eG*eA) [compound 416460]  49%
6. 416429 (antisense eA*e[5mC]*eG*e[5mC]*e[5mC]*dG*dT*dG*dG*dG*d[5mC]*dT*dT*d[5mC]*d[5mC]*eT*e[5mC]*e[5mC]*eT*eG) [compound 416429]  47%
7. 416463 (antisense eT*eG*e[5mC]*eT*eG*d[5mC]*dA*dG*dG*d[5mC]*dA*dG*dT*d[5mC]*d[5mC]*eT*eG*eG*eG*eT) [compound 416463]  39%
8. 416441 (antisense eA*eG*eA*eT*eA*dT*dA*dG*dG*dA*d[5mC]*dT*dG*dG*dA*eG*e[5mC]*eT*eG*eG) [compound 416441]  32%
9. 416480 (antisense eA*eA*eG*eT*eG*dA*dG*dA*dG*d[5mC]*dT*dA*dA*dA*d[5mC]*eA*eA*e[5mC]*e[5mC]*eG) [compound 416480]  25%
10. 416502 (antisense eG*eT*eT*e[5mC]*eT*dT*dT*dG*dA*dA*dA*dA*dA*dT*dA*eA*eT*e[5mC]*e[5mC]*e[5mC]) [compound 416502]  22%
11. 416563 (antisense eG*e[5mC]*e[5mC]*eT*eG*d[5mC]*dA*dT*dT*dT*d[5mC]*d[5mC]*d[5mC]*dA*dT*eT*eG*eG*e[5mC]*eA) [compound 416563]  0%
12. 416547 (antisense eA*eT*eG*eA*eA*dA*dT*dT*d[5mC]*dT*dA*d[5mC]*d[5mC]*dT*dA*eA*eA*eG*eA*eT) [compound 416547]  0%

same assay, conditions: oligonucleotides targeted to nucleobases 11830 to 11869 of SEQ ID NO: 1 (Table 9)

In order of falling “% Inhibition (human Factor 7 mRNA levels)” value:
1. 422240 (antisense eA*eG*dA*d[5mC]*dA*dA*dT*dG*dG*dT*d[5mC]*dA*dG*dG*dG*e[5mC]*eT*eG*eG*eT) [compound 422240]  66%
2. 422233 (antisense eG*eG*dT*d[5mC]*dA*dG*dG*dG*d[5mC]*dT*dG*dG*dT*dT*dT*eT*eG*eG*eA*eG) [compound 422233]  46%
3. 422156 (antisense eG*eG*eT*d[5mC]*dA*dG*dG*dG*d[5mC]*dT*dG*dG*dT*dT*dT*dT*dG*eG*eA*eG) [compound 422156]  38%
4. 422088 (antisense eT*e[5mC]*eA*eG*eG*dG*d[5mC]*dT*dG*dG*dT*dT*dT*dT*dG*eG*eA*eG*eG*eA) [compound 422088]  8%

same assay, conditions: oligonucleotides targeted to nucleobases 13760 to 13789 of SEQ ID NO: 1 (Table 10)

In order of falling “% Inhibition (human Factor 7 mRNA levels)” value:
1. 422181 (antisense eG*e[5mC]*e[5mC]*dA*d[5mC]*d[5mC]*d[5mC]*dG*d[5mC]*d[5mC]*dG*dG*d[5mC]*dT*d[5mC]*dT*dG*e[5mC]*eT*e[5mC]) [compound 422181]  66%
2. 422253 (antisense e[5mC]*e[5mC]*dG*d[5mC]*d[5mC]*dG*dG*d[5mC]*dT*d[5mC]*dT*dG*d[5mC]*dT*d[5mC]*eA*eT*e[5mC]*e[5mC]*e[5mC]) [compound 422253]  61%
3. 422261 (antisense eT*eG*d[5mC]*dG*d[5mC]*d[5mC]*dA*d[5mC]*d[5mC]*d[5mC]*dG*d[5mC]*d[5mC]*dG*dG*e[5mC]*eT*e[5mC]*eT*eG) [compound 422261]  47%
4. 422256 (antisense e[5mC]*eA*d[5mC]*d[5mC]*d[5mC]*dG*d[5mC]*d[5mC]*dG*dG*d[5mC]*dT*d[5mC]*dT*dG*e[5mC]*eT*e[5mC]*eA*eT) [compound 422256]  29%
5. 422182 (antisense e[5mC]*eG*e[5mC]*d[5mC]*dA*d[5mC]*d[5mC]*d[5mC]*dG*d[5mC]*d[5mC]*dG*dG*d[5mC]*dT*d[5mC]*dT*eG*e[5mC]*eT) [compound 422182]  11%

same assay, conditions: oligonucleotides targeted to nucleobases 15098 to 15122 of SEQ ID NO: 1 (Table 12)

In order of falling “% Inhibition (human Factor 7 mRNA levels)” value:
1. 422207 (antisense e[5mC]*eA*e[5mC]*dA*d[5mC]*dA*dT*dG*dG*dA*dG*dT*d[5mC]*dA*dG*d[5mC]*dA*eT*e[5mC]*eG) [compound 422207]  41%
2. 422289 (antisense eG*eA*d[5mC]*dA*dG*d[5mC]*dA*d[5mC]*dA*d[5mC]*dA*dT*dG*dG*dA*eG*eT*e[5mC]*eA*eG) [compound 422289]  34%
